Reference: PubChem BioAssay (NCI)
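Five concentrations, 48 hours, 96-well plates. At the TGI there is no net growth.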

System: UO-31 renal
Experiment: inhibition of tumour cell growth, NCI panel, 48 h

Row | Compound | TGI [µM]
1 | C=CCCCCC1CCC2CCC(CCCCC=C)N12 (stereo unspecified) | 27.4
2 | O=C(O)C(Cl)(Cl)Cl | > 100

System: DMS 273 small cell lung
Experiment: inhibition of tumour cell growth, NCI panel, 48 h

Row | Compound | TGI [µM]
3 | C=CCCCCC1CCC2CCC(CCCCC=C)N12 (stereo unspecified) | 37.5
4 | CCCCCCCCCCCCCCCC(=O)OCCOCCOCCOCc1ccccc1 | > 100
5 | O=C(O)C(Cl)(Cl)Cl | > 100

System: EKVX NSCLC
Experiment: inhibition of tumour cell growth, NCI panel, 48 h

Row | Compound | TGI [µM]
6 | COc1cc(OC)c2c(=O)cc(-c3ccc(OC)c(OC)c3OC)oc2c1 | > 100
7 | CCCCCCCCCCCCCCCC(=O)OCCOCCOCCOCc1ccccc1 | > 100
8 | O=C(O)C(Cl)(Cl)Cl | > 100

System: RXF 393 renal
Experiment: inhibition of tumour cell growth, NCI panel, 48 h

Row | Compound | TGI [µM]
9 | COc1cc(OC)c2c(=O)cc(-c3ccc(OC)c(OC)c3OC)oc2c1 | > 100
10 | CCCCCCCCCCCCCCCC(=O)OCCOCCOCCOCc1ccccc1 | > 100
11 | O=C(O)C(Cl)(Cl)Cl | > 100

System: CAKI-1 renal
Experiment: inhibition of tumour cell growth, NCI panel, 48 h

Row | Compound | TGI [µM]
12 | C=CCCCCC1CCC2CCC(CCCCC=C)N12 (stereo unspecified) | 84.8
13 | COc1cc(OC)c2c(=O)cc(-c3ccc(OC)c(OC)c3OC)oc2c1 | > 100
14 | CCCCCCCCCCCCCCCC(=O)OCCOCCOCCOCc1ccccc1 | > 100
15 | O=C(O)C(Cl)(Cl)Cl | > 100

System: OVCAR-8 ovarian
Experiment: inhibition of tumour cell growth, NCI panel, 48 h

Row | Compound | TGI [µM]
16 | C=CCCCCC1CCC2CCC(CCCCC=C)N12 (stereo unspecified) | 33.1
17 | CCCCCCCCCCCCCCCC(=O)OCCOCCOCCOCc1ccccc1 | > 100
18 | O=C(O)C(Cl)(Cl)Cl | > 100

System: SNB-78 CNS
Experiment: inhibition of tumour cell growth, NCI panel, 48 h

Row | Compound | TGI [µM]
19 | CCCCCCCCCCCCCCCC(=O)OCCOCCOCCOCc1ccccc1 | > 100
20 | O=C(O)C(Cl)(Cl)Cl | > 100

System: HCT-116 colon
Experiment: inhibition of tumour cell growth, NCI panel, 48 h

Row | Compound | TGI [µM]
21 | C=CCCCCC1CCC2CCC(CCCCC=C)N12 (stereo unspecified) | 30.2
22 | COc1cc(OC)c2c(=O)cc(-c3ccc(OC)c(OC)c3OC)oc2c1 | > 100
23 | CCCCCCCCCCCCCCCC(=O)OCCOCCOCCOCc1ccccc1 | > 100
24 | O=C(O)C(Cl)(Cl)Cl | > 100

System: MOLT-4 leukemia
Experiment: inhibition of tumour cell growth, NCI panel, 48 h

Row | Compound | TGI [µM]
25 | C=CCCCCC1CCC2CCC(CCCCC=C)N12 (stereo unspecified) | 36.3
26 | O=C(O)C(Cl)(Cl)Cl | > 100

System: HT29 colon
Experiment: inhibition of tumour cell growth, NCI panel, 48 h

Row | Compound | TGI [µM]
27 | C=CCCCCC1CCC2CCC(CCCCC=C)N12 (stereo unspecified) | 25.5
28 | COc1cc(OC)c2c(=O)cc(-c3ccc(OC)c(OC)c3OC)oc2c1 | > 100
29 | CCCCCCCCCCCCCCCC(=O)OCCOCCOCCOCc1ccccc1 | > 100

System: SR leukemia
Experiment: inhibition of tumour cell growth, NCI panel, 48 h

Row | Compound | TGI [µM]
30 | C=CCCCCC1CCC2CCC(CCCCC=C)N12 (stereo unspecified) | 33.4
31 | O=C(O)C(Cl)(Cl)Cl | > 100

System: OVCAR-4 ovarian
Experiment: inhibition of tumour cell growth, NCI panel, 48 h

Row | Compound | TGI [µM]
32 | C=CCCCCC1CCC2CCC(CCCCC=C)N12 (stereo unspecified) | 26.3
33 | COc1cc(OC)c2c(=O)cc(-c3ccc(OC)c(OC)c3OC)oc2c1 | > 100
34 | CCCCCCCCCCCCCCCC(=O)OCCOCCOCCOCc1ccccc1 | > 100
35 | O=C(O)C(Cl)(Cl)Cl | > 100

System: SK-MEL-2 melanoma
Experiment: inhibition of tumour cell growth, NCI panel, 48 h

Row | Compound | TGI [µM]
36 | C=CCCCCC1CCC2CCC(CCCCC=C)N12 (stereo unspecified) | 22.9
37 | COc1cc(OC)c2c(=O)cc(-c3ccc(OC)c(OC)c3OC)oc2c1 | > 100
38 | CCCCCCCCCCCCCCCC(=O)OCCOCCOCCOCc1ccccc1 | > 100
39 | O=C(O)C(Cl)(Cl)Cl | > 100

System: LOX IMVI melanoma
Experiment: inhibition of tumour cell growth, NCI panel, 48 h

Row | Compound | TGI [µM]
40 | COc1cc(OC)c2c(=O)cc(-c3ccc(OC)c(OC)c3OC)oc2c1 | > 100
41 | CCCCCCCCCCCCCCCC(=O)OCCOCCOCCOCc1ccccc1 | > 100
42 | O=C(O)C(Cl)(Cl)Cl | > 100

System: HCC-2998 colon
Experiment: inhibition of tumour cell growth, NCI panel, 48 h

Row | Compound | TGI [µM]
43 | C=CCCCCC1CCC2CCC(CCCCC=C)N12 (stereo unspecified) | 30
44 | COc1cc(OC)c2c(=O)cc(-c3ccc(OC)c(OC)c3OC)oc2c1 | > 100
45 | O=C(O)C(Cl)(Cl)Cl | > 100

System: KM20L2 colon
Experiment: inhibition of tumour cell growth, NCI panel, 48 h

Row | Compound | TGI [µM]
46 | C=CCCCCC1CCC2CCC(CCCCC=C)N12 (stereo unspecified) | 25.7
